Data on two molecules can be found in US11433069B2, “Methods of use and pharmaceutical combinations comprising histone deacetylase inhibitors and JAK1/2 inhibitors” (University of Modena and Reggio Emilia, priority 2017, dated 2022).

For assay [1], the system named is 12 hematological cancer cell lines. In words: MTT cell viability, single agents. The settings on record: panel of 12 lymphoid malignant cell lines, 24-48 hours, range over cell lines. It is filed as cell-based. The procedure:
Momelotinib induces dose and time dependent manner growth inhibition in a panel of twelve lymphoid malignant cell lines. Multiple myeloma cells (U266, RPM18266), B-cell lymphoma cells (RL, WSU-NHL, Karpas-422), chronic lymphocytic leukemia cells (MEC-1), mantle cell lymphoma cells (Granta-519, Jeko-1), cutaneous T cell lymphoma cells (Hut-78), anaplastic large cell lymphoma cells (Karpas-299), and Hodgkin lymphoma cells (L-1236, L-540) were treated with a serial dosage of momelotinib (1-10 μM) for 24-48 hours.
Momelotinib and Compound A alone and in combination were tested in 12 hematological cancer cell lines: B-cell lymphomas (WSU-NHL, RL, Karpas-422), mantle cell lymphoma (Granta-519, Jeko-1), cutaneous T cell lymphoma (Hut-78), anaplastic large cell lymphoma (Karpas-299), Hodgkin lymphoma (L-1236, L-540), multiple myeloma (U266, RPM18266) and chronic lymphocytic leukemia (MEC-1). With the exception of GRANTA-519, hematological cancer cell lines were cultured in RPMI-1640 supplemented with 10% fetal bovine serum (FBS), 2 mM glutamine, and 100 U/mL penicillin and streptomycin. For Granta-519 cells, DMEM was used in place of RPMI-1640.
Cell viability was evaluated by MTT colorimetric assay following the manufacturer's instructions. […]

A further assay concerns α-tubulin. The assay is described as follows: Western blot of acetylation of α-tubulin. It counts as cell-based. The settings on record: lymphoma cells; extent not further modified by momelotinib. The method, then: Lymphoma cell lines treated with 1 μM of momelotinib and 4 μM of citarinostat alone and in combination. […] Whole-cell lysates were subjected to western blotting using the indicated Abs. Tubulin was used to normalize protein loading. […] Whole-cell lysates were subjected to western blotting using the indicated Abs. Tubulin was used to normalize protein loading.
The combination treatment with momelotinib and Compound A leads JAK2/STAT3 pathway inactivation.
A general note: Immunoblotting shows a protein as a band on a membrane.

A word on the IC50: it is the midpoint of a concentration-inhibition curve. Take `O=C(CCCCCCNC(=O)c1cnc(N(c2ccccc2)c2ccccc2Cl)nc1)NO` [Compound A, 2-((2-chlorophenyl)(phenyl)amino)-N-(7-(hydroxyamino)-7-oxoheptyl)pyrimidine-5-carboxamide]: the IC50 in assay [1] fell in the range of 1.51 to 60 µM. The “acetylation of α-tubulin” value in the assay with α-tubulin is recorded as “induced the acetylation of α-tubulin”. For `N#CCNC(=O)c1ccc(-c2ccnc(Nc3ccc(N4CCOCC4)cc3)n2)cc1` [Momelotinib, momelotinib, reference compound], the IC50 in assay [1] is 1.8 to 9.6 µM.
